Assay results from ChEMBL document CHEMBL1121445, “Structure-activity analyzed by pattern recognition: the asymmetric case” (J Med Chem, 1980).
Active and inactive are the calls of the source. The rule behind the calls is not given here.

Columns and labels:
[1] = Partition coefficient (logP); type: physicochemical; settings: octanol/water
[2] = test system: Plasmodium berghei; assay: Antimalarial activity against Plasmodium berghei.; type: functional, organism-based
[3] = test system: Plasmodium berghei; assay: Antimalarial activity against Plasmodium berghei; Active; type: functional, organism-based

| Structure (SMILES) | logP ([1]; read-out: logP) | Activity [2] | Activity [3] | logP [1] |
| --- | --- | --- | --- | --- |
| Cc1ccc(NC2=C(Cl)C(=O)C(=O)c3cccnc32)cc1 | 1.5 | Not toxic |  |  |
| CCCCCCCCCCCCSC1=C(O)C(=O)c2cccnc2C1=O | 6.62 |  | Active |  |
| CCOC1=CC(=O)C(=O)c2ccccc21 | 1.2 | Not toxic |  |  |
| O=C1C=C(NCCCCC2CCCCC2)c2ccccc2C1=O | 6.11 |  | Active |  |
| CCCCCC/N=C1/C=C(O)C(=O)c2ccc(C)nc21 | 1.5 | Not toxic |  |  |
| CCCCCOC1=CC(=O)C(=O)c2ccccc21 | 3.38 | Not toxic |  |  |
| CCCCCCCCCCCCCCSC1=C(O)C(=O)c2cccnc2C1=O | 8.62 |  | Active |  |
| CC1=C(CCC(C)C)C(=O)c2ccccc2C1=O | 4.69 | Not toxic |  |  |
| NC1=CC(=O)C(=O)c2cccnc21 | 1.2 | Not toxic |  |  |
| O=C1C(=O)C2=C(CCCC2)C(O)=C1CCCC1CCCCC1 | 5.93 | Not toxic |  |  |
| CCCCCCCCCCCCCCCCCCSC1=C(O)C(=O)c2cccnc2C1=O |  |  | Active | 9.62 |
| CC1=C(O)C(=O)c2ccccc2C1=O | 0.2 | Not toxic |  |  |
| CCCCCCCCCCC1=C(O)C(=O)c2cc(OC)ccc2C1=O | 6.47 | Not toxic |  |  |
| Cc1ccc(/N=C2/C(Nc3ccc(C)c(C)c3)=CC(=O)c3ncccc32)cc1C | 5.6 | Not toxic |  |  |
| O=C1C(=O)c2c(ccc3ccccc23)C(O)=C1CCCC1CCCCC1 | 6.63 | Not toxic |  |  |
| CC(C)CCC1=C(O)C(=O)c2ccccc2C1=O | 3.87 |  | Active |  |
| CCCCCN(CCCCC)CCC/N=C1/C=C(O)C(=O)c2ccccc21 | 5.47 |  | Active |  |
| O=C1C(O)=C(CCCCCCCCC2CCCCC2)C(=O)c2ccccc21 [MENOCTONE] | 7.81 |  | Active |  |
| CCOC(=O)c1ccc(/N=C2/C(Nc3ccc(C(=O)OCC)cc3)=CC(=O)c3ncccc32)cc1 | 4.5 | Not toxic |  |  |
| COc1ccc(/N=C2/C(N)=CC(=O)c3ncccc32)cc1 | 1.5 | Not toxic |  |  |
| CCN(CC)CCCC/N=C1/C=C(O)C(=O)c2ccccc21 | 3.79 |  | Active |  |
| CCCCCCCCCCCC1=C(O)C(=O)C=C(O)C1=O [EMBELIN] | 5.04 | Not toxic |  |  |
| CCCC(C)COC1=CC(=O)C(=O)c2ccccc21 (stereo unspecified) | 3.38 | Not toxic |  |  |
| COc1ccc(/N=C2/C(Nc3ccc(OC)cc3)=CC(=O)c3ncccc32)cc1 | 4.5 | Not toxic |  |  |

| Structure (SMILES) | logP ([1]; read-out: logP) | Activity [2] | Activity [3] | logP [1] |
| --- | --- | --- | --- | --- |
| CCCCCCCCCCC1=C(O)C(=O)c2ccc(OC)cc2C1=O | 6.47 | Not toxic |  |  |
| CCCCCCCCCCCCCCCC/N=C1\C=C(O)c2ncccc2C1=O | 7.8 | Not toxic |  |  |
| CCCCCCCCCCCCCCCC1=C(O)C(=O)c2cccnc2C1=O | 7.5 |  | Active |  |
| NC1=CC(=O)c2ncccc2/C1=N\c1ccc(Cl)cc1 | 2.5 | Not toxic |  |  |
| CCCC/N=C1\C=C(O)c2ncccc2C1=N | 1.5 | Not toxic |  |  |
| CCN(CC)C1=CC(=O)C(=O)c2ccccc21 | 3.28 |  | Active |  |
| O=C1C(=O)c2ccc(O)cc2C(O)=C1CCCC1CCCCC1 | 4.64 | Not toxic |  |  |
| O=C(CCC1CCCCC1)C1=CC(=O)c2ccccc2C1=O | 4.1 | Not toxic |  |  |
| CCCCCCCCCC1=C(O)C(=O)c2sccc2C1=O | 5.06 | Not toxic |  |  |
| NC1=CC(=O)c2ncccc2/C1=N\c1ccccc1 | 1.5 | Not toxic |  |  |
| COc1ccc(NC2=CC(=O)C(=O)c3ccccc32)cc1 | 1.9 |  | Active |  |
| O=C1C(=O)c2cc(Cl)ccc2C(O)=C1CCCCC1CCCCC1 | 6.69 | Not toxic |  |  |
| O=C1C(=O)c2ccccc2C(O)=C1CCCC1CCCCC1 | 5.31 |  | Active |  |
| CC(C)CCC1=C(N)C(=O)c2ccccc2C1=O | 4.37 | Not toxic |  |  |
| O=C1C=C(Nc2ccc(Cl)cc2)/C(=N/c2ccc(Cl)cc2)c2cccnc21 | 5.6 | Not toxic |  |  |
| CC(C)CCC1=C(Cl)C(=O)c2ccccc2C1=O | 4.64 | Not toxic |  |  |
| Cc1ccc2c(c1)C(=O)C(CCC(C)C)=C(O)C2=O | 4.26 |  | Active |  |
| CC(C)CCC1=CC(=O)c2ccccc2C1=O | 4 | Not toxic |  |  |
| CCCCCCCCCCC1=C(O)C(=O)c2ccc(Br)cc2C1=O | 7.17 | Not toxic |  |  |
| Cc1ccc(/N=C2/C(N)=CC(=O)c3ncccc32)cc1C | 2.5 | Not toxic |  |  |
| CN(C)CCCN(C1=CC(=O)C(=O)c2ccccc21)c1ccccc1 | 3.4 |  | Active |  |
| O=C1C(=O)c2cccnc2C(Nc2ccccc2)=C1Cl | 1.3 | Not toxic |  |  |
| O=C1C(=O)c2ncccc2C(O)=C1CCCCCCCCC1CCCCC1 | 6.5 |  | Active |  |
| Cc1ccc2c(c1)C(=O)C(O)=C(CCC(C)C)C2=O | 4.26 |  | Active |  |
